This note sets out measurements from patent US6005008A, “IL-8 receptor antagonists” (SmithKline Beecham Corporation, priority 1997, dated 1999).

The target in the assay is T1, recombinant IL-8 Rβ, or Type II, receptor (Homo sapiens, UniProt P25025).
T1 sequence (P25025 1-360): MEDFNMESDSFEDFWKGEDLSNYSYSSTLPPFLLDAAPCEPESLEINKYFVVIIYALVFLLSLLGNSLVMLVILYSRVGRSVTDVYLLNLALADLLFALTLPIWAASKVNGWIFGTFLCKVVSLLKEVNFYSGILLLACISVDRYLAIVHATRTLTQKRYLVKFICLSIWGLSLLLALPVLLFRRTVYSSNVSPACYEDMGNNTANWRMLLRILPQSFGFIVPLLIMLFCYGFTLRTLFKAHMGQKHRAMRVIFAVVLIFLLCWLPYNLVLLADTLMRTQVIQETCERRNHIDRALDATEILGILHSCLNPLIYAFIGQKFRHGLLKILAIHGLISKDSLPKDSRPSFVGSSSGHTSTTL
Description: Receptor binding assay, 125I IL-8, IL-8Rβ CHO membranes (permissive model). An excerpt:
[^125 I] IL-8 (human recombinant) was obtained from Amersham Corp., Arlington Heights, Ill., with specific activity 2000 Ci/mmol. Gro-α was obtained from NEN-New England Nuclear. All other chemicals were of analytical grade. High levels of recombinant human IL-8 type α and β receptors were individually expressed in Chinese hamster ovary cells as described previously (Holmes, et al., Science, 1991, 253, 1278). The Chinese hamster ovary membranes were homogenized according to a previously described protocol (Haour, et al., J Biol Chem., 249 pp 2195-2205 (1974)). Except that the homogenization buffer was changed to 10 mM Tris-HCL, 1 mM MgS04, 0.5 mM EDTA (ethylene-diaminetetra-acetic acid), 1 mMPMSF (α-toluenesulphonyl fluoride), 0.5 mg/L Leupeptin, pH 7.5. Membrane protein concentration was determined using Pierce Co. micro-assay kit using bovine serum albumin as a standard. All assays were performed in a 96-well micro plate format. Each reaction mixture contained ^125 I IL-8 (0.25 nM) or ^125 I Gro-α and 0.5 μg/mL of IL-8Rα or 1.0 μg/mL or IL-8Rβ membranes in 20 mM Bis-Trispropane and 0.4 mM Tris HCl buffers, pH 8.0, containing 1.2 mM MgSO4, 0.1 mM EDTA, 25 mM NaCl and 0.03% CHAPS. […] The filter was then dried and counted on the Betaplate liquid scintillation counter. […]

Turning to `Cc1cc(Cl)ccc1NC(=O)Nc1ccccc1C(=O)O` [1-(2-Carboxyphenyl)-3-(4-chloro-2-methylphenyl)urea], the “found to be active at (IL-8 receptor inhibition)” value is recorded as “about 75 μg/mL”.
